Measurements: patent publication US6022969A, “Compositions and methods for treating mast-cell mediated conditions” (AXYS Pharmaceuticals, Inc., priority 1995, dated 2000)

Legend:
[1] = test system: antigen-challenged sheep; test: Allergic sheep model of asthma: airway hyperresponsiveness to carbachol (PC400) 24 hours after antigen challenge; type: in vivo
Method: (§1) The initial asthmatic response can be evaluated in guinea pigs, and dogs, and particularly, with a basenji-greyhound cross strain which develops nonspecific airway hyperresponsiveness to numerous nonallergenic substances, such as methacholine and citric acid. […] In dual responding animals, the initial asthmatic response (IAR) is followed by a late asthmatic response (LAR) at 6-8 hours post-exposure.
(§2) The allergic sheep model of asthma was employed for he in vivo evaluation of the compounds of the invention as antiasthmatics. These methods have been published previously (see Abraham et al. (1983) Am. Rev. Respir. Dis. 128:839-844; Allegra et al. (1983) J. Appl. Physiol. 55:726-730; Russi et al. (1985) J. Appl. Physiol. 59:1416-1422; Soler et al. (1989) J. Appl. Physiol. 67:406-413. Each sheep serves as its own control. Body weights for these animals ranged from 20-50 kilograms.
Twenty-four hours after antigen challenge in both the control and drug trial, the sheep developed airway hyperresponsiveness. Airway hyperresponsiveness is expressed as PC400, the concentration of carbachol that causes a 400% increase in SRL; therefore, a decrease in PC400 indicates hyperresponsiveness. […] The number of breath units fell to 12 for those animals in the control group.

[2] = test system: tryptase; test: In vitro tryptase inhibition assay (hydrolysis of tosyl-Gly-Pro-Lys-p-nitroanilide); type: biochemical, human; settings: apparent affinity comparable to enzyme concentration
Method: The compounds to be assayed (approximately 1 mg) were dissolved in 200 μL dimethylsulfoxide (DMSO) and diluted 1:10 into buffer containing 50 millimolar (mM) Tris-HCl (pH 8.2), 100 mM sodium chloride, and 0.05% polyoxyethylenesorbitan monolaurate (Tween-20®, available from Sigma, St. Louis, Mo.). Seven additional threefold dilutions were made from the initial dilution into the same buffer supplemented with 10% DMSO. Aliquots (50 microliters, μL) from each of the eight dilutions in the series were transferred to individual wells in a 96-well U-bottom microtiter plate. 25 μL of a stock solution of tryptase was added to each well and the samples were mixed and incubated for one hour at room temperature (tryptase was purified from human lung and skin tissue preparations, HMC-1 (human mast cell line) and also obtained from commercial sources (ICN Biomedicals, Irvine, Calif.; Athens Research & Technology, Athens, Ga.)). […] The tryptase solution was prepared by placing 60 μg/mL of tryptase into solution with 10 mM MES (2-[N-Morpholino]ethane sulfonic acid) containing 2 mM CaCl2, 20% glycerol and 50 μg/mL heparin. The enzyme reaction was initiated with the addition of the synthetic tripeptide substrate, tosyl-Gly-Pro-Lys-p-nitroanilide (available from Sigma, 25 μL; 0.5 mM final concentration).
However, Ki ' varies with the enzyme concentration used in the enzyme assay. […] The y-intercept of a replot of IC50 (ordinate) versus tryptase concentration (abscissa) produces a value for Ki '.
The inhibition constants (Ki ', micromolar (μM)) were determined for the compounds of the present invention.

[3] = test system: antigen-challenged sheep; test: Allergic sheep model of asthma: Specific Lung Resistance (SRL) after antigen challenge; type: in vivo
Method: as §1
The allergic sheep model (see below) was used to evaluate the potential antiasthmatic effects of the compounds of the present invention.
as §2
The peak early response was taken as the average of the maximum values occurring immediately post-challenge. Peak late responses were calculated by averaging the maximum response values obtained for each animal within the 6-8 hour time period. This approach is conservative and eliminates the possible reduction in the late response due simply to averaging.
Three doses of the compound (2 mg in 10 mL water) were administered to sheep through an intergastric tube 1 hr before challenge, 4 hours post-challenge, and 24 hours post-challenge.

Compound: N=C(N)Nc1ccc(CNC(=O)N2CCN(C(=O)O[C@H]3CCC[C@@H](OC(=O)N4CCN(C(=O)NCc5ccc(NC(=N)N)cc5)CC4)CCC3)CC2)cc1 [Compound 3, cis-1,5-Cyclooctylene bis[4-(4-guanidinobenzylcarbamoyl)-1-piperazinecarboxylate]]
- airway function in antigen challenged sheep (aerosol) ([1]; aerosol 3 x 50 μg (FIG. 2)): significant improvement in airway function
- airway hyperresponsiveness, PC400 (aerosol) ([1]; aerosol 3 x 50 μg, 24 h after challenge, baseline 32, control 12 (FIG. 2)): ~32 breath units
- airway function / PC400 (aerosol pretreatment) ([1]; aerosol predosing 0.5 mg/day x 3 days plus 0.5 mg 0.5 h before challenge (FIG. 8)): significant improvement in airway function
- onset of hyperresponsiveness (PC400, aerosol), result in words ([1]; aerosol, 24 h after antigen challenge, Compound 3 3 x 50 μg (FIG. 2), Compound 2 3 x 0.1 mg (FIG. 6)): block the onset of hyperresponsiveness
- type of tryptase inhibition [2]: tight binding inhibitor
- early and late responses to antigen challenge, SRL (aerosol) ([3]; Compound 3: aerosol 50 μg 0.5 h before, 4 h and 24 h after challenge, n=3 (FIG. 1), Compound 2: aerosol 3 x 0.1 mg (FIG. 5)): significant attenuation of the early and late responses to the antigen challenge
- early and late phase response to antigen challenge, SRL (aerosol pretreatment) ([3]; aerosol predosing 0.5 mg/day x 3 days plus 0.5 mg 0.5 h before challenge (FIG. 7)): significant attenuation of early and late phase response to antigen challenge
- early phase SRL (oral) ([3]; intragastric 2 mg in 10 mL water 1 h before, 4 h and 24 h post-challenge, untreated about 250): about 175
- late phase SRL (oral) ([3]; intragastric 2 mg in 10 mL water 1 h before, 4 h and 24 h post-challenge, untreated over 200): about 50
- anti-asthmatic properties when delivered orally ([3]; oral, 3 x 2 mg): significant anti-asthmatic properties when delivered orally
